We go through one compound from ChEMBL document CHEMBL4007467, “Effects of 6-paradol, an unsaturated ketone from gingers, on cytochrome P450-mediated drug metabolism” (Bioorg Med Chem Lett, 2017).

What all share (type): ADME
Data set [1] has as its target Cytochrome P450 2C9 (Homo sapiens, UniProt P11712). In words: Inhibition of human CYP2C9 using diclofenac as substrate incubated for 5 mins followed by NADPH addition measured after 30 mins by LC-MS/MS analysis.
The target of data set [2] is Cytochrome P450 2C19 (Homo sapiens, UniProt P33261). In words: Inhibition of CYP2C19 in human liver microsomes using (S)-mephenytoin as substrate preincubated for 20 mins followed by substrate addition measured after 30 mins in presence of NADPH by LC-MS/MS analysis. Background: Liver microsomes are vesicles of endoplasmic reticulum, rich in cytochrome P450 enzymes.
Chain of Cytochrome P450 2C19 (P33261 whole entry): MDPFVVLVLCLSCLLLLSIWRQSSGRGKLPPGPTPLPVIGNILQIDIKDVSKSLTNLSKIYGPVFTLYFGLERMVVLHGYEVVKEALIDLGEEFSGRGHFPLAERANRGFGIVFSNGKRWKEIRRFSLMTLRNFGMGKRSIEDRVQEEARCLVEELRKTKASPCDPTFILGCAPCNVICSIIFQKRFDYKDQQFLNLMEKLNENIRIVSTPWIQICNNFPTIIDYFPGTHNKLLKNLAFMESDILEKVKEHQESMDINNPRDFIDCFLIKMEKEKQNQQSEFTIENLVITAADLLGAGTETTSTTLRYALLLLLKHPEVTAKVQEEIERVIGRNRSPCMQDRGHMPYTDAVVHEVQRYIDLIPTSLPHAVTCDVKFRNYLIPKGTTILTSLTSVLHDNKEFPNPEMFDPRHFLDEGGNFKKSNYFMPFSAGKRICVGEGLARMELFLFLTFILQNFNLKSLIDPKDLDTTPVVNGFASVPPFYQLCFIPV

Data set [3] deals with CYP2C9 (Homo sapiens, UniProt P11712). In words: Inhibition of CYP2C9 in human liver microsomes assessed as enzyme-mediated metabolite formation at 3 uM using diclofenac as substrate preincubated for 20 mins followed by substrate addition measured after 30 mins in presence of NADPH by LC-MS/MS analysis relative to control. The arrangement: scale not given: the % may be the effect or the level left. As to conditions: probe diclofenac, read-out: Activity.
Chain of CYP2C9 (P11712 whole entry): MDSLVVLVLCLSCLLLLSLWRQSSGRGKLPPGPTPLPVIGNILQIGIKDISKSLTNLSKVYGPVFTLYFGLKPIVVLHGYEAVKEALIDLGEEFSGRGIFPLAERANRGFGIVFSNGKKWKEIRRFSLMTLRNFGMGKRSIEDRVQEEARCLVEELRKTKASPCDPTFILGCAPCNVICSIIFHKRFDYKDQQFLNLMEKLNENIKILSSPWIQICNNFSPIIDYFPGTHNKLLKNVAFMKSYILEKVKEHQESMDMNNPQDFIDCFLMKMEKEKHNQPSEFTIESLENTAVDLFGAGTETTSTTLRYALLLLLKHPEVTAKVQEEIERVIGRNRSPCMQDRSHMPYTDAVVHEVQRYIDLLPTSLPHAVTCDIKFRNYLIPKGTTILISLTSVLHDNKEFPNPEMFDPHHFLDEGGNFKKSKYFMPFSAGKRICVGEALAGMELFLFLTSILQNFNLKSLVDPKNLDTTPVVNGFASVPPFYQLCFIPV

Data set [4] has as its target T1, CYP2C19 (Homo sapiens, UniProt P33261). The data set is described as follows: Inhibition of CYP2C19 in human liver microsomes assessed as enzyme-mediated metabolite formation at 1 uM using (S)-mephenytoin as substrate preincubated for 20 mins followed by substrate addition measured after 30 mins in presence of NADPH by LC-MS/MS analysis relative to control. On the set-up: scale not given: the % may be the effect or the level left. The note with it: probe (S)-mephenytoin, read-out: Activity.

Data set [5] has as its target T2, CYP3A4 (Homo sapiens, UniProt P08684). The data set is described as follows: Inhibition of CYP3A4 in human liver microsomes assessed as enzyme-mediated metabolite formation at 1 uM using testosterone as substrate preincubated for 20 mins followed by substrate addition measured after 30 mins in presence of NADPH by LC-MS/MS analysis relative to control. On the set-up: scale not given: the % may be the effect or the level left. As to conditions: probe testosterone, read-out: Activity.

Data set [6] deals with T1, CYP2C19. The data set is described as follows: Inhibition of CYP2C19 in human liver microsomes assessed as enzyme-mediated metabolite formation at 30 uM using (S)-mephenytoin as substrate preincubated for 20 mins followed by substrate addition measured after 30 mins in presence of NADPH by LC-MS/MS analysis relative to control. The note with it: probe (S)-mephenytoin, read-out: Activity. The arrangement: scale not given: the % may be the effect or the level left.

Data set [7] has as its target T2, CYP3A4. In words: Inhibition of CYP3A4 in human liver microsomes assessed as enzyme-mediated metabolite formation at 3 uM using midazolam as substrate preincubated for 20 mins followed by substrate addition measured after 30 mins in presence of NADPH by LC-MS/MS analysis relative to control. The arrangement: scale not given: the % may be the effect or the level left. As to conditions: probe midazolam, read-out: Activity.

Data set [8] addresses T3, CYP2B6 (Homo sapiens, UniProt P20813).
T3 sequence (P20813 whole entry): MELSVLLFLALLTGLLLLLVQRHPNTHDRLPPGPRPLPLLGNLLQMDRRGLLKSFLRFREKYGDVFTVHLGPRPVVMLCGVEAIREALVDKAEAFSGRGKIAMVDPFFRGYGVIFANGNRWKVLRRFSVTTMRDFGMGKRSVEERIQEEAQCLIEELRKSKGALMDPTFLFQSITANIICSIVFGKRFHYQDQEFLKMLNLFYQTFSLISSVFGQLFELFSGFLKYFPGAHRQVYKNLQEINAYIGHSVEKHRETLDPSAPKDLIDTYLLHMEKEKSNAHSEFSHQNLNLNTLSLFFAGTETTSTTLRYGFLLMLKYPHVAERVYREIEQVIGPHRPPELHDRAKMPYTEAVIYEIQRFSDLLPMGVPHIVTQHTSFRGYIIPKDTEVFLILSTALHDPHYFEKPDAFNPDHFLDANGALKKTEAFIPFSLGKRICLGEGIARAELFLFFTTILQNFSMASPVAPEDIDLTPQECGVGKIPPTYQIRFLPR
In words: Inhibition of CYP2B6 in human liver microsomes assessed as enzyme-mediated metabolite formation at 10 uM using bupropion as substrate preincubated for 20 mins followed by substrate addition measured after 30 mins in presence of NADPH by LC-MS/MS analysis relative to control. On the set-up: scale not given: the % may be the effect or the level left. The note with it: probe bupropion, read-out: Activity.

The target of data set [9] is T4, Cytochrome P450 1A2 (Homo sapiens, UniProt P05177).
T4 sequence (P05177 whole entry): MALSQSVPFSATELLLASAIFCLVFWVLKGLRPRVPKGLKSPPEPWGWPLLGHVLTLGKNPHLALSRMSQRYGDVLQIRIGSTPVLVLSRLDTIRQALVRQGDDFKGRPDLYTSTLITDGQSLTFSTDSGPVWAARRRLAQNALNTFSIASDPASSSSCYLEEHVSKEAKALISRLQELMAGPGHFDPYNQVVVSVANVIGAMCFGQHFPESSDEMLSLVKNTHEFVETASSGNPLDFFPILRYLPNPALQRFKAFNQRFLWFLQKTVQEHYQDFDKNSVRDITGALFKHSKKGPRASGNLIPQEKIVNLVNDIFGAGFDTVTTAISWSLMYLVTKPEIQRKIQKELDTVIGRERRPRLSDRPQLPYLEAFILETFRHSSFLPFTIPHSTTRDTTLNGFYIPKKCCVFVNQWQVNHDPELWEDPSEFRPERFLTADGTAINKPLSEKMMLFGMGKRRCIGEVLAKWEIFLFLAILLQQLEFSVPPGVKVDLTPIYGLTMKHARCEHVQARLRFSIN
In words: Inhibition of CYP1A2 in human liver microsomes using phenacetin as substrate preincubated for 20 mins followed by substrate addition measured after 30 mins in presence of NADPH by LC-MS/MS analysis.

Data set [10] concerns the target T2, CYP3A4. The data set is described as follows: Inhibition of CYP3A4 in human liver microsomes assessed as enzyme-mediated metabolite formation at 1 uM using testosterone as substrate incubated for 5 mins followed by NADPH addition measured after 30 mins by LC-MS/MS analysis relative to control. On the set-up: scale not given: the % may be the effect or the level left. As to conditions: probe testosterone, read-out: Activity.

In data set [11] the target is T5, CYP1A2 (Homo sapiens, UniProt P05177).
T5 sequence (P05177 whole entry): T4 sequence (P05177 whole entry)
The data set is described as follows: Inhibition of CYP1A2 in human liver microsomes assessed as enzyme-mediated metabolite formation at 3 uM using phenacetin as substrate incubated for 5 mins followed by NADPH addition measured after 30 mins by LC-MS/MS analysis relative to control. The arrangement: scale not given: the % may be the effect or the level left. The note with it: probe phenacetin, read-out: Activity.

Data set [12] concerns the target T2, CYP3A4. The data set is described as follows: Inhibition of CYP3A4 in human liver microsomes assessed as enzyme-mediated metabolite formation at 30 uM using midazolam as substrate incubated for 5 mins followed by NADPH addition measured after 30 mins by LC-MS/MS analysis relative to control. As to conditions: probe midazolam, read-out: Activity. On the set-up: scale not given: the % may be the effect or the level left.

For data set [13], the target named is T5, CYP1A2. The data set is described as follows: Inhibition of CYP1A2 in human liver microsomes assessed as enzyme-mediated metabolite formation at 10 uM using phenacetin as substrate incubated for 5 mins followed by NADPH addition measured after 30 mins by LC-MS/MS analysis relative to control. On the set-up: scale not given: the % may be the effect or the level left. As to conditions: probe phenacetin, read-out: Activity.

In data set [14] the target is CYP2D6 (Homo sapiens, UniProt P10635). The data set is described as follows: Inhibition of CYP2D6 in human liver microsomes assessed as enzyme-mediated metabolite formation at 0.3 uM using dextromethorphan as substrate preincubated for 20 mins followed by substrate addition measured after 30 mins in presence of NADPH by LC-MS/MS analysis relative to control. On the set-up: scale not given: the % may be the effect or the level left. The note with it: probe dextromethorphan, read-out: Activity.
Chain of CYP2D6 (P10635 whole entry): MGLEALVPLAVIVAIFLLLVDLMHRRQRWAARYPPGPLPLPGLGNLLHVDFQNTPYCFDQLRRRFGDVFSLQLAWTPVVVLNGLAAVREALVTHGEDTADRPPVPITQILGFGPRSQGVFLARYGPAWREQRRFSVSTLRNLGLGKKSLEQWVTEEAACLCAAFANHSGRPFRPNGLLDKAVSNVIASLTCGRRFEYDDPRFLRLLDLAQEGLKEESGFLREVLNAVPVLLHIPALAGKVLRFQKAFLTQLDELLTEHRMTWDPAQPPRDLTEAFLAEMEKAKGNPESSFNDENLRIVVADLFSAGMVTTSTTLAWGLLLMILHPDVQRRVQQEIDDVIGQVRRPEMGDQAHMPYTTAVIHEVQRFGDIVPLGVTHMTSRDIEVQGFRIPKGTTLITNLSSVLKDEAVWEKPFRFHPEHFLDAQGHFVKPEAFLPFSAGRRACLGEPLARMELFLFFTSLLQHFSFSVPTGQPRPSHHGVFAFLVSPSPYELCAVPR

T2 sequence (P08684 whole entry): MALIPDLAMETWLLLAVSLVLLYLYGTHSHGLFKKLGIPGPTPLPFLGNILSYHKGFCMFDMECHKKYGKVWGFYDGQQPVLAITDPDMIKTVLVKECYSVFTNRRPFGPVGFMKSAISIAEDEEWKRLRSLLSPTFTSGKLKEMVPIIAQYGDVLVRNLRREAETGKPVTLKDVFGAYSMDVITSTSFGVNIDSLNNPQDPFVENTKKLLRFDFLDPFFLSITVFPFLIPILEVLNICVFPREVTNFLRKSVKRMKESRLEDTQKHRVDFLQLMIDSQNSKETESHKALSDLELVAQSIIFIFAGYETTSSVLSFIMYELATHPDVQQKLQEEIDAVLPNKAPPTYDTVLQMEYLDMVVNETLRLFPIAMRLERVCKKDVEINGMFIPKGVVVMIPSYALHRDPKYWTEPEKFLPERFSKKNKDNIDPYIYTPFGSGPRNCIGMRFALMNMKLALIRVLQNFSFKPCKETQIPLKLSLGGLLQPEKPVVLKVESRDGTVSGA
Chain of Cytochrome P450 2C9 (P11712 whole entry): as the sequence (P11712 whole entry) above
T1 sequence (P33261 whole entry): as the sequence (P33261 whole entry) above

As for `CCCCCCCC(=O)CCc1ccc(O)c(OC)c1`, the IC50 in data set [1] is 10.5 µM; in data set [2], 3.6 µM; in data set [9] it was 19.6 µM. Moreover, the “inhibition (INH)” value in [1] (human, 0.5 h) is reported as “Dose-dependent effect”. Also, the activity at 0.5 h, 3 µM in [3] came out at 78.8%; in data set [7], 103%; in data set [11], 72%. Further, the activity at 0.5 h, 1 µM in data set [4] stood at 72.1%; in data set [5] it was 89.8%; in [10], 65.6%. Besides, the activity at 0.5 h, 30 µM in data set [6] amounted to 36.8%; in data set [12] it was 72%. Also, the figures for the activity at 0.5 h, 10 µM in [8] and in data set [13] were 54.3% and 49.7%, respectively. Further, the activity at 0.5 h, 0.3 µM in data set [14] stood at 87%.

One may read the IC50 as the concentration needed to halve the response being measured.
